Experimental data taken from ChEMBL document CHEMBL3714709, “T1R hetero-oligomeric taste receptors, cell lines that express said receptors, and taste compounds” (2008).
The source made the active and inactive calls. No cut-off for these calls is given here.

Legend:
T1R1/T1R3 (Homo sapiens) = T1R1/T1R3 (Homo sapiens) (UniProt Q7RTX0+Q7RTX1); assay: Activation of human T1R1/T1R3; type: protein-complex assay
[1] = molecular target: Muscarinic acetylcholine receptor (Homo sapiens) (UniProt P20309+P08173+P11229+P08172+P08912); assay: Inhibition of mAChR (unknown origin) expressed in HEK293 cells; type: cell-based
[2] = molecular target: T1, Taste receptor type 2 member 105 (Mus musculus) (UniProt Q9JKT4); assay: Inhibition of mouse T2R5 expressed in HEK293 cells; type: cell-based
T1 sequence (whole entry): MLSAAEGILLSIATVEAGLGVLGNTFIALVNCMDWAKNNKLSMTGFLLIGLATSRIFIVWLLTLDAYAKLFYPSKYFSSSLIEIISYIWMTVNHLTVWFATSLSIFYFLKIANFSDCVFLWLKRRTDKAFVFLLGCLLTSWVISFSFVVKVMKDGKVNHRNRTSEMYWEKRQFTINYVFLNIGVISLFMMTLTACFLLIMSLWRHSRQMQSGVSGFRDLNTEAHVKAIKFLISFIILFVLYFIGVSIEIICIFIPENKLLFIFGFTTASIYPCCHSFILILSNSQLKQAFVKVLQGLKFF

| Activity (T1R1/T1R3 (Homo sapiens)) | inhibition [1] | inhibition [2] | SMILES |
| --- | --- | --- | --- |
| inactive |  |  | N[C@H](Cc1c[nH]c2ccccc12)C(=O)O |
|  | inactive | inactive | COc1ccc(OC(C)C(=O)O)cc1 (stereo not given) |
| inactive |  |  | OC[C@H]1O[C@@](CO)(O[C@H]2O[C@H](CO)[C@@H](O)[C@H](O)[C@H]2O)[C@@H](O)[C@@H]1O |
| inactive |  |  | O=C1NS(=O)(=O)c2ccccc21 |
